Data from patent publication US5021421A, “2-(1-Piperazinyl)-4-phenylcycloalkanopyridine derivatives, processes for the production thereof, and pharmaceutical composition containing the same” (Dainippon Pharmaceutical Co., Ltd., priority 1989, dated 1991).
Counter-ions that a name gives are not always drawn. Like-named read-outs stand apart in the source and are kept apart here.

Legend:
[1] = tested on: brain monoamine metabolites; test: Increasing effect on concentration of brain monoamine metabolites; assay type: in vivo, mice (Std-ddy strain); conditions: Mus musculus, 2 h, non-dosed=100
Description: A group of 5 male mice (Std-ddy strain, 25-30 g) was used for examining effect of the test compounds on concentration of brain monoamine metabolites.
Mice were killed by decapitation 2 hours after treatment with the test compounds. Brains were quickly taken out, homogenized in 1N formic acid-acetone solution, and centrifuged in a refrigerated ultracentrifuge. The supernatant was evaporated by blowing with N2 gas. Then, the residue was again resolved in 0.01 N acetic acid, and served for determining concentration of dopamine metabolites, 3,4-dihydroxyphenylacetic acid (DOPAC) and homovanillic acid (HVA), a norepinephrine metabolite, 3-methyl-4-hydroxyphenylethylene glycol (MOPEG), and a serotonin metabolite, 5-hydroxyindole-3-acetic acid (5-HIAA) concentrations by HPLC with electrochemical detection. The effect of the test compounds on concentration of each monoamine metabolite is shown as % of control (level of non-dosed animals=100) in Table 4.

[2] = tested on: apomorphine-induced vomiting; test: Antagonistic effect on apomorphine-induced vomiting; assay type: in vivo, dogs (Beagle); conditions: Canis lupus familiaris, sc, apomorphine 0.3 mg/kg s.c. 2 h after compound, read-out: Inhibitory ratio (apomorphine-induced vomiting)
Description: A group of 3-4 dogs (Beagle, 8-15 kg) was used for examining effects on the test compounds on apomorphine-induced vomiting, a known test for evaluating neuroleptic drugs.
Each dog was given a subcutaneous injection of apomorphine hydrochloride (0.3 mg/kg) two hours after the treatment of the test compounds. Then, the frequency of oral vomiting was counted for one hour. The mean counts of the compound-treated group were compared with those of the corresponding control (non-dosed) group, and the percent inhibition was calculated.

[3] = read-out: 5-HIAA concentration, % of control
[4] = read-out: DOPAC concentration, % of control
[5] = read-out: HVA concentration, % of control
[6] = read-out: MOPEG concentration, % of control

Structure (SMILES): CCN1CCN(c2cc(-c3ccc(F)cc3)c3c(n2)CCCCCCC3)CC1 [Example 56]
- response vs control in vivo at 10 mg/kg [1, 3]: 110%
- response vs control in vivo at 10 mg/kg [1, 4]: 302%
- response vs control in vivo at 10 mg/kg [1, 5]: 249%
- response vs control in vivo at 10 mg/kg [1, 6]: 106%
- inhibition in vivo at 0.5 mg/kg ([2]; dose 0.5 mg/kg): 85%

Structure (SMILES): CCN1CCN(c2cc(-c3ccc(F)cc3)c3c(n2)CCC(C)C3)CC1 (centres unmarked) [Example 59]
- response vs control in vivo at 2 mg/kg [1, 3]: 106%
- response vs control in vivo at 2 mg/kg [1, 4]: 246%
- response vs control in vivo at 2 mg/kg [1, 5]: 236%
- response vs control in vivo at 2 mg/kg [1, 6]: 126%

Structure (SMILES): CCN1CCN(c2cc(-c3ccc(F)cc3)c3c(n2)CCC(C)(C)C3)CC1 [Example 66]
- response vs control in vivo at 2 mg/kg [1, 3]: 116%
- response vs control in vivo at 2 mg/kg [1, 4]: 311%
- response vs control in vivo at 2 mg/kg [1, 5]: 308%
- response vs control in vivo at 2 mg/kg [1, 6]: 111%
- inhibition in vivo at 1 mg/kg [2]: 95%

Structure (SMILES): CCN1CCN(c2cc(-c3ccc(F)cc3)c3c(n2)CC(C)(C)CC3C)CC1 (centres unmarked) [Example 68]
- response vs control in vivo at 2 mg/kg [1, 4]: 206%
- response vs control in vivo at 2 mg/kg [1, 5]: 181%

Structure (SMILES): COCCN1CCN(c2cc(-c3ccc(F)cc3)c3c(n2)CCCCCC3)CC1 [Example 82, 2-[4-(2-Methoxyethyl)-1-piperazinyl]-4-(4-fluorophenyl)-5,6,7,8,9,10-hexahydrocycloocta[b]pyridine dimaleate]
- inhibition in vivo at 1 mg/kg [2]: 100%

Structure (SMILES): CC1CN(c2cc(-c3ccc(F)cc3)c3c(n2)CCCCCC3)CC(C)N1 (centres unmarked) [Example 84, 2-(3,5-Dimethyl-1-piperazinyl)-4-(4-fluorophenyl)-5,6,7,8,9,10-hexahydrocycloocta[b]pyridine 1/2 fumarate]
- response vs control in vivo at 10 mg/kg [1, 4]: 237%
- response vs control in vivo at 10 mg/kg [1, 5]: 216%

Structure (SMILES): Fc1ccc(-c2cc(N3CCNCC3)nc3c2CCCCCC3)cc1 [Example 104, 2-(1-piperazinyl)-4-(4-fluorophenyl)-5,6,7,8,9,10-hexahydrocycloocta[b]pyridine]
- response vs control in vivo at 10 mg/kg [1, 3]: 97%
- response vs control in vivo at 10 mg/kg [1, 4]: 344%
- response vs control in vivo at 10 mg/kg [1, 5]: 247%
- response vs control in vivo at 10 mg/kg [1, 6]: 160%

Structure (SMILES): CC1CN(c2cc(-c3ccc(F)cc3)c3c(n2)CCCCCC3)CCN1C (centres unmarked) [Example 116, 2-(3,4-Dimethyl-1-piperazinyl)-4-(4-fluorophenyl)-5,6,7,8,9,10-hexahydrocycloocta[b]pyridine fumarate 1/4 hydrate]
- inhibition in vivo at 1 mg/kg [2]: 100%

Structure (SMILES): C[C@@H]1CN(c2cc(-c3ccc(F)cc3)c3c(n2)CCCCCC3)C[C@H](C)N1C [Example 117, 2-(cis-3,5-Dimethyl-4-methyl-1-piperazinyl)-4-(4-fluorophenyl)-5,6,7,8,9,10-hexahydrocycloocta[b]pyridine fumarate]
- response vs control in vivo at 10 mg/kg [1, 3]: 100%
- response vs control in vivo at 10 mg/kg [1, 4]: 242%
- response vs control in vivo at 10 mg/kg [1, 5]: 210%
- response vs control in vivo at 10 mg/kg [1, 6]: 133%

Structure (SMILES): CCCCCCN1CCN(c2cc(-c3ccc(F)cc3)c3c(n2)CCCCCC3)CC1 [Example 124]
- response vs control in vivo at 10 mg/kg [1, 3]: 107%
- response vs control in vivo at 10 mg/kg [1, 4]: 292%
- response vs control in vivo at 10 mg/kg [1, 5]: 238%
- response vs control in vivo at 10 mg/kg [1, 6]: 102%

Structure (SMILES): CCN1CCN(c2cc(-c3ccc(F)cc3F)c3c(n2)CCCCC3)CC1 [Example 131, 2-(4-ethyl-1-piperazinyl)-4-(2,4-difluorophenyl)-6,7,8,9-tetrahydro-5H-cyclohepta[b]pyridine]
- response vs control in vivo at 1 mg/kg [1, 4]: 319%
- response vs control in vivo at 1 mg/kg [1, 5]: 224%

Structure (SMILES): CCN1CCN(c2cc(-c3ccc(F)cc3F)c3c(n2)CCC3)CC1 [Example 132, 2-(4-ethyl-1-piperazinyl)-4-(2,4-difluorophenyl)-6,7-dihydro-5H-1-pyrindin]
- response vs control in vivo at 10 mg/kg [1, 4]: 333%
- response vs control in vivo at 10 mg/kg [1, 5]: 209%

Structure (SMILES): CCN1CCN(c2cc(-c3ccc(F)cc3F)c3c(n2)C2CCC3C2)CC1 (centres unmarked) [Example 135, 2-(4-ethyl-1-piperazinyl)-4-(2,4-difluorophenyl)-5,6,7,8-tetrahydro-5,8-methanoquinoline]
- inhibition in vivo at 1 mg/kg [2]: 100%

Structure (SMILES): OCCCN1CCN(c2cc(-c3ccc(F)cc3)c3c(n2)CCCCCC3)CC1 [Example 138, 2-[4-(3-hydroxypropyl)-1-piperazinyl]-4-(4-fluorophenyl)-5,6,7,8,9,10-hexahydrocycloocta[b]pyridine]
- response vs control in vivo at 2 mg/kg [1, 4]: 236%
- response vs control in vivo at 2 mg/kg [1, 5]: 173%

Structure (SMILES): CC(=O)OCCN1CCN(c2cc(-c3ccc(F)cc3)c3c(n2)CCCCCC3)CC1 [Example 139, 2-[4-(2-acetoxyethyl)-1-piperazinyl]-4-(4-fluorophenyl)-5,6,7,8,9,10-hexahydrocycloocta[b]pyridine]
- response vs control in vivo at 10 mg/kg [1, 4]: 267%
- response vs control in vivo at 10 mg/kg [1, 5]: 206%
